Measured values as given in EP2998289B1, “COMPOUNDS FOR TARGETING DRUG DELIVERY AND ENHANCING SIRNA ACTIVITY” (NITTO DENKO CORPORATION, priority 2011, dated 2012).

How the values were obtained:
[1] = system: gp46; test: pHSC in vitro assay: gp46/HSP47 mRNA knockdown by siRNA formulations, qRT-PCR; settings: for in vitro (pHSC) % KD: @ 50 nM, label = cationic lipid of the formulation, 2880 min; for in vitro (pHSC) EC50 or % KD: % KD @ 50 nM, 20:20 HEDC:S104 with 2% conjugate
[2] = system: gp46; test: in vivo efficacy, rat DMNQ short-term liver damage model (liver gp46 mRNA)
[3] = @ 0.75 mpk, 20:20 HEDC:S104 with 2% retinoid conjugate

Compound	in vitro (pHSC) % KD [1] [% @ 50 nM]	further results
CCCCCCCCCCCCCC(=O)OCCN(CCOC(=O)CCCCCCCCCCCCC)C(=O)CC[N+](C)(C)CCO.[Br-] [HE-Et-DC, 3-(bis(2-(tetradecanoyloxy)ethyl)amino)-N-(2-hydroxyethyl)-N,N-dimethyl-3-oxopropan-1-aminium bromide]	70	–
CC1=C(/C=C/C(C)=C/C=C/C(C)=C/C(=O)NCCCC[C@H](NC(=O)/C=C(C)/C=C/C=C(C)/C=C/C2=C(C)CCCC2(C)C)C(=O)NCCCOCCOCCOCCCNC(=O)CCOCCOCCOCCOCCOCCC(=O)NCCCOCCOCCOCCCNC(=O)[C@H](CCCCNC(=O)/C=C(C)/C=C/C=C(C)/C=C/C2=C(C)CCCC2(C)C)NC(=O)/C=C(C)/C=C/C=C(C)/C=C/C2=C(C)CCCC2(C)C)C(C)(C)CCC1 [DiVA, N1,N19-bis((S,23E,25E,27E,29E)-16-((2E,4E,6E,8E)-3,7-dimethyl-9-(2,6,6-trimethylcyclohex-1-en-1-yl)nona-2,4,6,8-tetraenamido)-24,28-dimethyl-15,22-dioxo-30-(2,6,6-trimethylcyclohex-1-en-1-yl)-4,7,10-trioxa-14,21-diazatriaconta-23,25,27,29-tetraen-1-yl)-4,7,10,13,16-pentaoxanonadecane-1,19-diamide]	–	in vivo (rat DMNQ) % KD [2, 3]: 60% @ 0.75 mpk; inhibition at 0.05 µM ([1]; Rattus norvegicus, read-out: in vitro (pHSC) EC50 or % KD): 74%
CCCCCCCCCCCCCC(=O)OCCN(CCOC(=O)CCCCCCCCCCCCC)C(=O)CCC[N+](C)(C)CCO.[Br-] [HE-Pr-DC, 4-(bis(2-(tetradecanoyloxy)ethyl)amino)-N-(2-hydroxyethyl)-N,N-dimethyl-4-oxobutan-1-aminium bromide]	47	–
N1,N19-bis((R)-1,8-dioxo-7-(4-((E)-2-(5,5,8,8-tetramethyl-5,6,7,8-tetrahydro-naphthalen-2-yl)prop-1-en-1-yl)benzamido)-1-(4-((E)-2-(5,5,8,8-tetramethyl-5,6,7,8-tetrahydronaphthalen-2-yl)prop-1-en-1-yl)phenyl)-13,16,19-trioxa-2,9-diazadocosan-22-yl)-4,7,10,13,16-pentaoxanonadecane-1,19-diamide [Example 4TTNPB]	–	in vitro (pHSC) EC50 or % KD [1]: 34% @ 50 nM
CCCCCCCC/C=C\CCCCCCCC(=O)OCCCN(CCCOC(=O)CCCCCCC/C=C\CCCCCCCC)C(=O)C[N+](C)(C)CCO.[Br-] [Pr-HE-DODC, 2-(bis(3-(oleoyloxy)propyl)amino)-N-(2-hydroxyethyl)-N,N-dimethyl-2-oxoethanaminium bromide]	73	–
N1,N19-bis((16S)-16-(3,7-dimethyl-9-(2,6,6-trimethylcyclohex-1-en-1-yl)nonanamido)-24,28-dimethyl-15,22-dioxo-30-(2,6,6-trimethylcyclohex-1-en-1-yl)-4,7,10-trioxa-14,21-diazatriacontyl)-4,7,10,13,16-pentaoxanonadecane-1,19-diamide [satDiVA]	–	in vivo (rat DMNQ) % KD [2, 3]: 74% @ 0.75 mpk; in vitro (pHSC) EC50 or % KD [1]: 73% @ 50 nM
CCCCCCCCCCCCCC(=O)OCCN(CCOC(=O)CCCCCCCCCCCCC)C(=O)C[N+](C)(C)CCO.[Br-] [HEDC, 2-(bis(2-(tetradecanoyloxy)ethyl)amino)-N-(2-hydroxyethyl)-N,N-dimethyl-2-oxoethanaminium bromide]	68	in vivo (rat DMNQ) % KD ([2]; @ 0.5 mpk, label = cationic lipid of the formulation): 52% @ 0.5 mpk
CCCCCCCC/C=C\CCCCCCCC(=O)OCCN(CCOC(=O)CCCCCCC/C=C\CCCCCCCC)C(=O)CCC[N+](C)(C)CCO.[Br-] [HE-Pr-DODC, 4-(bis(2-(oleoyloxy)ethyl)amino)-N-(2-hydroxyethyl)-N,N-dimethyl-4-oxobutan-1-aminium bromide]	75	–
CCCCCCCCCCCCCC(=O)NCCCC[C@@H](NC(=O)CCCCCCCCCCCCC)C(=O)NCCCOCCOCCOCCCNC(=O)CCOCCOCCOCCOCCOCCC(=O)NCCCOCCOCCOCCCNC(=O)[C@@H](CCCCNC(=O)CCCCCCCCCCCCC)NC(=O)CCCCCCCCCCCCC [Example 4Myr, N1,N19-bis((R)-15,22-dioxo-16-tetradecanamido-4,7,10-trioxa-14,21-diazapenta-triacontyl)-4,7,10,13,16-pentaoxanonadecane-1,19-diamide]	–	in vitro (pHSC) EC50 or % KD [1]: 27% @ 50 nM
CCCCCCCCCCCCCC(=O)OCCCN(CCCOC(=O)CCCCCCCCCCCCC)C(=O)C[N+](C)(C)CCO.[Br-] [Pr-HEDC, 2-(bis(3-(tetradecanoyloxy)propyl)amino)-N-(2-hydroxyethyl)-N,N-dimethyl-2-oxoethanaminium bromide]	75	–
CCCCCCCC/C=C\CCCCCCCC(=O)OCCN(CCOC(=O)CCCCCCC/C=C\CCCCCCCC)C(=O)C[N+](C)(CCO)CCO.[Br-] [HE2DODC, 2-(bis(2-(oleoyloxy)ethyl)amino)-N,N-bis(2-hydroxyethyl)-N-methyl-2-oxoethanaminium bromide]	78	–
CCCCCCCC/C=C\CCCCCCCC(=O)OCCN(CCOC(=O)CCCCCCC/C=C\CCCCCCCC)C(=O)CC[N+](C)(C)CCO.[Br-] [HE-Et-DODC, 3-(bis(2-(oleoyloxy)ethyl)amino)-N-(2-hydroxyethyl)-N,N-dimethyl-3-oxopropan-1-aminium bromide]	71	–
